Data as given in ChEMBL document CHEMBL5113380, “Functionalized quinoxalinones as privileged structures with broad-ranging pharmacological activities” (Eur J Med Chem, 2022).
Values after ≈ are worked out from the molar mass of the structure shown. Each block holds one molecule with its values, some of them ahead of it.

Columns and labels:
Escherichia coli = experiment: Antibacterial activity against Escherichia coli; type: functional
[1] = target: T1, Glutamate receptor ionotropic AMPA (Homo sapiens, UniProt P42261+P42262+P42263+P48058); experiment: Displacement of [3H]AMPA from AMPA receptor (unknown origin); type: protein-complex assay
Aspergillus niger = experiment: Antifungal activity against Aspergillus niger; type: functional
[2] = test system: Trichophyton mentagrophytes; experiment: Antimicrobial activity against Trichophyton mentagrophytes; type: functional
Pseudomonas aeruginosa = experiment: Antibacterial activity against Pseudomonas aeruginosa; type: functional
Candida albicans = experiment: Antifungal activity against Candida albicans; type: functional
Staphylococcus aureus = experiment: Antibacterial activity against Staphylococcus aureus; type: functional
Bacillus cereus = experiment: Antibacterial activity against Bacillus cereus; type: functional
[3] = target: Human immunodeficiency virus type 1 reverse transcriptase (Human immunodeficiency virus 1, UniProt Q72547); experiment: Inhibition of HIV1 reverse transcriptase
[4] = Inhibition of ALR2 (unknown origin); set-up: species or system Homo sapiens
[5] = Inhibition of ALR1 (unknown origin) relative to control; set-up: concentration or dose not given beside the values; conditions: Homo sapiens; concentration not given here
HeLa = experiment: Antiproliferative activity against human HeLa cells; type: functional, cell-based
MCF7 = experiment: Antiproliferative activity against human MCF7 cells; type: functional, cell-based
[6] = target: Glutamate receptor ionotropic, kainate 1 (Homo sapiens, UniProt P39086); experiment: Binding affinity to GluK1 receptor (unknown origin)
Sequence of Glutamate receptor ionotropic, kainate 1 (P39086 whole entry): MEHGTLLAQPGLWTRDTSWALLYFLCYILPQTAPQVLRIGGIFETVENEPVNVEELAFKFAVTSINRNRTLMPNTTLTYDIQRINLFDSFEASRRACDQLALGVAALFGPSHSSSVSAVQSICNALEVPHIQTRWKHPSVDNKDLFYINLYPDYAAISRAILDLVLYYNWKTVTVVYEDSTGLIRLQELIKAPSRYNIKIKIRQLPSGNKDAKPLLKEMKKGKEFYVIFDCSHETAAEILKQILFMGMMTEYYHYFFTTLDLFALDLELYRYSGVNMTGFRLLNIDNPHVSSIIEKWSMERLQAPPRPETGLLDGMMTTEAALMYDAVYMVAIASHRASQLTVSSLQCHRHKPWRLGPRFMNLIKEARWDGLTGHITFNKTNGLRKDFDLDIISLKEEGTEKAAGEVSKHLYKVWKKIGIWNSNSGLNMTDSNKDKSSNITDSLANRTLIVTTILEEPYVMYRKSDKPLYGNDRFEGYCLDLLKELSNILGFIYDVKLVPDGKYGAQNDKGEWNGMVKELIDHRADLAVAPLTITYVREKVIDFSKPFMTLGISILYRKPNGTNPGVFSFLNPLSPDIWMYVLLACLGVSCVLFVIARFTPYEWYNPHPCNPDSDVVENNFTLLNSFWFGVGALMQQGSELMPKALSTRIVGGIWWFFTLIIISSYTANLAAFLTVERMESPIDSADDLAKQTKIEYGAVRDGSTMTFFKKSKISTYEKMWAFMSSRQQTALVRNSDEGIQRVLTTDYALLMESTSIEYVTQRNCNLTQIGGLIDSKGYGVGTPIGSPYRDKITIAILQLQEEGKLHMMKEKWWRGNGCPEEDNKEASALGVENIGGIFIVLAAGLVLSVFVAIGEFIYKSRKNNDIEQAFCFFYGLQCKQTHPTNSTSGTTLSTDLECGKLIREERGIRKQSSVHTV

Glutamate receptor 2 = Glutamate receptor 2 (Homo sapiens, UniProt P42262); experiment: Binding affinity to GluA2 receptor (unknown origin)
Sequence of Glutamate receptor 2 (P42262 whole entry): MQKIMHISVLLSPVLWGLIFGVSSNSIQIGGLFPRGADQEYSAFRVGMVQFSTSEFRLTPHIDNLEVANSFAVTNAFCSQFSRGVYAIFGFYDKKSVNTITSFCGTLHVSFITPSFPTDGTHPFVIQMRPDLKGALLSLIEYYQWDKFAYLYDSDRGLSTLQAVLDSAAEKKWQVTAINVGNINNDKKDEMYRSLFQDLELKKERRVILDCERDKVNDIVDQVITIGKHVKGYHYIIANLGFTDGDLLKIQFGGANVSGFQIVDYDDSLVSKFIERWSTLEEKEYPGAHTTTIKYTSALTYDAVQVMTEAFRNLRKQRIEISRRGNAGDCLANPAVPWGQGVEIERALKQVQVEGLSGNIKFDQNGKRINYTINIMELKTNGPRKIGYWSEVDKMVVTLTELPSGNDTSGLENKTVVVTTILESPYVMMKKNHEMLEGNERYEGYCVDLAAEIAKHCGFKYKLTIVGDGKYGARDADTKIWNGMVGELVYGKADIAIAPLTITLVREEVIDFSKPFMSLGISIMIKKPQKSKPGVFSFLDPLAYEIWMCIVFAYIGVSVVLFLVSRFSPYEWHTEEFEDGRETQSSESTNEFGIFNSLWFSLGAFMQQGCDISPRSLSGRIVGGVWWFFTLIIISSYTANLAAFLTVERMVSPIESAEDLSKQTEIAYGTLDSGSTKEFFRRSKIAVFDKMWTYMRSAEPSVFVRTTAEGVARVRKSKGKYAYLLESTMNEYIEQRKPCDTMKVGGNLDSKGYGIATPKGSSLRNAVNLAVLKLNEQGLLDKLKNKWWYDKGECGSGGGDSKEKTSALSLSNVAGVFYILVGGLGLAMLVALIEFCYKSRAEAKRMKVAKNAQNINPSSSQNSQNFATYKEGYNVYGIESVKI

[7] = target: Glutamate [NMDA] receptor; experiment: Displacement of [3H]DCKA from NMDA receptor (unknown origin); type: protein-complex assay, Homo sapiens
[8] = Antioxidant activity assessed as DPPH radical scavenging activity; type: functional; conditions: read-out: IC50
[9] = target: Glutamate [NMDA] receptor; experiment: Binding affinity to NMDA receptor (unknown origin); type: protein-complex assay, Homo sapiens
[10] = target: Glutamate receptor ionotropic, kainate 2 (Homo sapiens, UniProt Q13002); experiment: Binding affinity to GluK2 receptor (unknown origin)
Sequence of Glutamate receptor ionotropic, kainate 2 (Q13002 whole entry): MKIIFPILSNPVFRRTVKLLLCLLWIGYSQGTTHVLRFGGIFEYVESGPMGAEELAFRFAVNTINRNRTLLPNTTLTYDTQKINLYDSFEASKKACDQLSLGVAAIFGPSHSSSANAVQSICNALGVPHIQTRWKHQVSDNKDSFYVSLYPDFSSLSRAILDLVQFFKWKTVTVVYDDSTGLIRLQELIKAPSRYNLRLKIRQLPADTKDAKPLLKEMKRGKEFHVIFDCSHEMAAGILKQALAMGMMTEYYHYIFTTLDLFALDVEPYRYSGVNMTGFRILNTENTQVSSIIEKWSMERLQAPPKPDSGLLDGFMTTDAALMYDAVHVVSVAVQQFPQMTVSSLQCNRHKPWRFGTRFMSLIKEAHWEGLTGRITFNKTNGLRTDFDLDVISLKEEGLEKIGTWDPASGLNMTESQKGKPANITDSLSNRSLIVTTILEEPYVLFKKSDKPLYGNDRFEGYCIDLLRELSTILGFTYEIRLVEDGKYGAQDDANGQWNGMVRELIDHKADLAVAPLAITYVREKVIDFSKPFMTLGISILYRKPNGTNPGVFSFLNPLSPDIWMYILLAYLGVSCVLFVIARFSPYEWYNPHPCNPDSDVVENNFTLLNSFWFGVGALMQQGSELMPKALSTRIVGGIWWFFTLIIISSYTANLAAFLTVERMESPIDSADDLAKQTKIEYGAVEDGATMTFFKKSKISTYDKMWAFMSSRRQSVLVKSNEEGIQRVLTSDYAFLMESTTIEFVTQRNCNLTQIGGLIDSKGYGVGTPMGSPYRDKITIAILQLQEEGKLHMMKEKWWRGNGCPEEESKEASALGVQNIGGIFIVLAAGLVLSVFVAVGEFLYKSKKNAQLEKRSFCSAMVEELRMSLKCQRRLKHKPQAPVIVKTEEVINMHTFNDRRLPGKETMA

[11] = Binding affinity to KA receptor (unknown origin); set-up: species or system Homo sapiens
[12] = target: T1, Glutamate receptor ionotropic AMPA; experiment: Binding affinity to AMPA receptor (unknown origin); type: protein-complex assay
Homo sapiens = species: Homo sapiens; experiment: Inhibition of human TRK relative to control; set-up: concentration or dose not given beside the values; conditions: concentration not given here
[13] = Displacement of [3H]glycine from AMPA receptor (unknown origin); type: protein-complex assay, Homo sapiens
[14] = target: T1, Glutamate receptor ionotropic AMPA; experiment: Displacement of [3H]kainic acid from AMPA receptor (unknown origin); type: protein-complex assay

MIC (Escherichia coli): 125 µg/mL (≈ 557 µM)
SMILES: O=C(O)c1nc2ccc(Cl)cc2[nH]c1=O

IC50 [1]: 1180 nM
SMILES: C=Cc1c(Br)cc2nc(O)c(O)nc2c1CN(C)CC(=O)O

Ki [1]: 68 nM
SMILES: CCOC(=O)c1nc2c(O)nc3cc([N+](=O)[O-])c(-n4ccc(C(=O)O)c4)cc3n2n1

IC50 [1]: 2320 nM
SMILES: CCc1c(Br)cc2nc(O)c(O)nc2c1CN(C)CC(=O)O

MIC (Escherichia coli): 500 µg/mL | MIC (Aspergillus niger): > 500 µg/mL | MIC [2]: 250 µg/mL | MIC (Pseudomonas aeruginosa): > 500 µg/mL | MIC (Candida albicans): 0.97 µg/mL | MIC (Staphylococcus aureus): 0.97 µg/mL | MIC (Bacillus cereus): 0.97 µg/mL
SMILES: CCCCCCCCC[n+]1cccc(-c2nc(-c3ccccc3)c3c(=O)n(CCCCCC)c4ccccc4n23)c1.[Br-]
MBC (Escherichia coli): 500 µg/mL | MBC (Aspergillus niger): > 500 µg/mL | MBC [2]: 250 µg/mL | MBC (Pseudomonas aeruginosa): > 500 µg/mL | MBC (Candida albicans): 50 µg/mL | MBC (Staphylococcus aureus): 5 µg/mL | MBC (Bacillus cereus): 50 µg/mL

IC50 [3]: 200 nM
SMILES: COC(=O)c1sccc1S(=O)(=O)N1c2cc(Cl)ccc2NC(=O)C1C (configuration not stated)

IC50 [4]: 16.3 nM | inhibition [5]: 25.6%
SMILES: O=C(O)Cn1c(=O)c(Oc2ccc(Br)cc2)nc2cc(Br)ccc21

IC50 (HeLa): 8920 nM | IC50 (MCF7): 2610 nM
SMILES: COc1ccc(/C(=C(\C#N)C(=O)NN)n2c(=O)c(O)nc3ccccc32)cc1

MIC (Pseudomonas aeruginosa): 62.5 µg/mL (≈ 258 µM)
SMILES: CCc1nc2cc(C(F)(F)F)ccc2[nH]c1=O

Ki [6]: 12700 nM | Ki (Glutamate receptor 2): > 100000 nM
SMILES: O=C(Nn1c(=O)c(=O)[nH]c2cc(C#CCCO)ccc21)c1ccccc1

Ki [7]: 9.6 nM
SMILES: O=C(O)C[C@H]1CCc2cc(Br)cc3[nH]c(=O)c(=O)n1c23

IC50 [3]: 200 nM
SMILES: COC(=O)c1sccc1S(=O)(=O)N1c2cc(F)ccc2NC(=O)C1C (configuration not stated)

SMILES: NC(CNC(=O)C(=O)O)C(=O)O (configuration not stated)
IC50 [1]: 1300 nM

IC50 [8]: 10500 nM
SMILES: O=C1CSC(c2ccc([N+](=O)[O-])cc2)N1c1ccc2nc(Cc3ccc(O)cc3)c(=O)[nH]c2c1 (configuration not stated)

Ki [6]: 1400 nM | Ki [9]: > 100000 nM | Ki [10]: 2500 nM | IC50 [11]: 24000 nM | IC50 [12]: 480 nM
SMILES: O=C(O)c1ccccc1/C=C/c1ccc2[nH]c(=O)c(=O)[nH]c2c1

Ki [7]: 3 nM
SMILES: C[C@H]1Cc2cc(Br)cc3[nH]c(=O)c(=O)n(c23)C1CC(=O)Nc1ccccc1 (some centres not stated)

Ki [12]: 16 nM
SMILES: O=C(Nc1ccc(C(=O)O)cc1)OCc1cn(-c2cc3nc(C(=O)O)c(O)nc3cc2C(F)(F)F)cn1

inhibition (Homo sapiens): 12%
SMILES: Cc1nn(-c2ccccc2)c(N2CCN(S(=O)(=O)c3ccccc3)CC2)c1/C=N/Nc1nc2ccccc2nc1O

IC50 [4]: 143 nM | inhibition [5]: 22%
SMILES: O=C(O)Cn1c(=O)c(CCc2ccccc2)nc2ccccc21

Ki [13]: 2300 nM | Ki [1]: 400 nM | IC50 [14]: 37000 nM
SMILES: O=C(O)c1nc2c(=O)[nH]c3cc(Cl)cc(-n4cnnc4)c3n2n1

Ki [7]: 0.96 nM
SMILES: O=C(C[C@@H]1CCc2cc(Br)cc3[nH]c(=O)c(=O)n1c23)Nc1ccccc1

Ki [9]: > 100000 nM | Ki [10]: 48000 nM | IC50 [11]: > 100000 nM | IC50 [12]: > 100000 nM | Ki (Glutamate receptor 2): > 100000 nM
SMILES: O=C(O)c1ccc(-c2ccc3[nH]c(=O)c(=O)[nH]c3c2)cc1

IC50 [3]: 75 nM
SMILES: COC(=O)c1sc(I)cc1S(=O)(=O)N1c2cc(Cl)ccc2NC(=O)C1C (configuration not stated)

SMILES: O=[N+]([O-])c1cc2nc(O)c(O)nc2nc1-n1ccnc1
Ki [13]: 10000 nM | Ki [1]: 140 nM

Ki [6]: > 100000 nM | Ki [9]: 53000 nM | Ki [10]: > 100000 nM | IC50 [11]: > 100000 nM | IC50 [12]: > 100000 nM
SMILES: O=C(O)CNS(=O)(=O)c1ccc2nc(O)c(O)nc2c1

Ki [6]: 1200 nM | Ki [9]: > 100000 nM | Ki [10]: 33000 nM | IC50 [11]: 57000 nM | IC50 [12]: 24000 nM | Ki (Glutamate receptor 2): > 100000 nM
SMILES: O=C(O)c1cc(-c2ccc3[nH]c(=O)c(=O)[nH]c3c2)ccc1Cl

Ki [6]: > 100000 nM | IC50 [1]: 203000 nM | Ki [10]: 136000 nM | IC50 [14]: > 300000 nM | Ki (Glutamate receptor 2): > 100000 nM
SMILES: N[C@@H](Cc1ccc2[nH]c(=O)c(=O)[nH]c2c1)C(=O)O

IC50 [1]: 690 nM
SMILES: NC(Cn1c(=O)c(=O)[nH]c2ccccc21)C(=O)O (configuration not stated)

IC50 [4]: 11.4 nM | inhibition [5]: 30.7%
SMILES: O=C(O)Cn1c(=O)c(Oc2ccc(Br)cc2)nc2ccc(F)cc21

Ki [12]: 22 nM
SMILES: O=C(Nc1ccc(C(=O)O)cc1)OCc1cn(-c2cc3nc(C(=O)O)c(=O)[nH]c3cc2[N+](=O)[O-])cn1
